Test results taken from PubChem BioAssay AID504388 (Southern Research Specialized Biocontainment Screening …, 2011).
Active and inactive are the calls of the source. The rule behind the calls is not given here.

test system: host cell cytotoxicity, % cell control, HIV fusion counter-screen; experiment: cytotoxicity of HIV-1 entry inhibitor leads – cell-based, cytotoxicity control for CCR5-tropic HIV-1 fusion inhibitors, dose response (AID 504388)

`Cc1c2c(=O)n(-c3nc4ccccc4s3)nc-2cc(O)n1CCc1ccc(O)cc1` was tested. Which CC50 did it give?
The CC50 was 27.2 µM.

With `COc1ccc(CCn2c(O)cc3nn(-c4nc5ccccc5s4)c(=O)c-3c2C)cc1` as the compound, how does the CC50 read?
The CC50 was 36.4 µM.

How did the CC50 turn out when `O=C(O)CCCN1C(=O)/C(=C\c2ccc(-c3cccc(Cl)c3)o2)SC1=S` was run?
The CC50 was 51.1 µM.

How did the CC50 turn out when `Cc1c2c(=O)n(-c3nc4ccccc4s3)nc-2cc(O)n1Cc1ccc(F)cc1` was run?
The CC50 was 38.5 µM.

How did the CC50 turn out when `COc1ccccc1Cn1c(O)cc2nn(-c3nc4ccccc4s3)c(=O)c-2c1C` was run?
The CC50 was 36.6 µM.

Which CC50 does the source give for `COc1ccc(-n2cccc2/C=C2/C(=N)N3C(=NC2=O)SN=C3S(C)(=O)=O)cc1Cl` here?
The CC50 was 96 µM.

For `CS(=O)(=O)C1=NSC2=NC(=O)/C(=C\c3cccn3-c3ccc(F)cc3)C(=N)N21`, which CC50 is on record?
The CC50 was 36.3 µM.

`CS(=O)(=O)C1=NSC2=NC(=O)/C(=C\c3cccn3-c3ccc(Cl)cc3)C(=N)N21` was tested. Which CC50 did it give?
The CC50 was 39.7 µM.

With `CS(=O)(=O)C1=NSC2=NC(=O)/C(=C\c3cccn3-c3cccc(C(F)(F)F)c3)C(=N)N21` as the compound, how does the CC50 read?
Its CC50 is 53.9 µM.

`CCOc1ccc(-n2cccc2/C=C2/C(=N)N3C(=NC2=O)SN=C3S(C)(=O)=O)cc1` was tested. Which CC50 did it give?
Its CC50 is 40.2 µM.

With `O=C(O)CCC(C(=O)O)N1C(=O)/C(=C\c2ccco2)SC1=S` (centres undefined) as the compound, how does the CC50 read?
Its CC50 is > 100 µM (inactive).

With `CCOC(=O)C1=C(C)N=c2sc(=Cc3ccc(OCC(=O)O)cc3)c(=O)n2C1c1ccc(OC)cc1OC` (centres undefined) as the compound, how does the CC50 read?
Its CC50 is 55.8 µM.

`Cc1c2c(=O)n(-c3nc4ccccc4s3)nc-2cc(O)n1CCc1cccs1` was tested. Which CC50 did it give?
The CC50 was > 100 µM (inactive).

`Cc1c2c(=O)n(-c3nc4ccccc4s3)nc-2cc(O)n1Cc1ccncc1` was tested. Which CC50 did it give?
The CC50 was 5.17 µM.

For `CS(=O)(=O)C1=NSC2=NC(=O)/C(=C\c3cccn3-c3cccc(F)c3)C(=N)N21`, which CC50 is on record?
Its CC50 is 48.5 µM.

For `Cc1c2c(=O)n(-c3nc4ccccc4s3)nc-2cc(O)n1Cc1cccs1`, which CC50 is on record?
Its CC50 is 42.5 µM.

With `CS(=O)(=O)C1=NSC2=NC(=O)/C(=C\c3cccn3-c3ccc(Br)cc3)C(=N)N21` as the compound, how does the CC50 read?
The CC50 was 36.9 µM.

With `CCc1ccc(-n2cccc2/C=C2/C(=N)N3C(=NC2=O)SN=C3S(C)(=O)=O)cc1` as the compound, how does the CC50 read?
The CC50 was 30.7 µM.

How did the CC50 turn out when `O=C(O)CCCN1C(=O)/C(=C\c2ccc(-c3ccc(Br)cc3)o2)SC1=S` was run?
The CC50 was 7.36 µM.

`COc1ccc(Cn2c(O)cc3nn(-c4nc5ccccc5s4)c(=O)c-3c2C)cc1` was tested. Which CC50 did it give?
The CC50 was 39.4 µM.

`COc1cccc(C2C(C(=O)Nc3ccccc3)=C(C)N=c3sc(=Cc4ccc(OCC(=O)O)cc4)c(=O)n32)c1` (centres undefined) was tested. Which CC50 did it give?
The CC50 was > 100 µM (inactive).

How did the CC50 turn out when `O=C(O)c1ccc(C[n+]2c(-c3ccc([N+](=O)[O-])cc3)csc2Nc2ccccc2)cc1` was run?
The CC50 was > 100 µM (inactive).

`CCOC(=O)C1=C(c2ccccc2)N=c2s/c(=C\c3ccc(OCC(=O)O)cc3)c(=O)n2C1c1cccc(OC)c1` (centres undefined) was tested. Which CC50 did it give?
Its CC50 is 51.5 µM.

`O=C(O)CCCN1C(=O)/C(=C\c2ccc(-c3ccc(Cl)cc3)o2)SC1=S` was tested. Which CC50 did it give?
The CC50 was 37.5 µM.

`Cc1c2c(=O)n(-c3nc4ccccc4s3)nc-2cc(O)n1CCC(C)C` was tested. Which CC50 did it give?
Its CC50 is 36.5 µM.

For `O=C(O)CCCN1C(=O)/C(=C\c2ccc(-c3ccc(F)cc3)o2)SC1=S`, which CC50 is on record?
Its CC50 is 88.2 µM.

For `COc1ccc(-c2ccc(/C=C3\SC(=S)N(CCCC(=O)O)C3=O)o2)cc1`, which CC50 is on record?
The CC50 was 78.6 µM.

For `Cc1ccc(-n2cccc2/C=C2/C(=N)N3C(=NC2=O)SN=C3S(C)(=O)=O)cc1C`, which CC50 is on record?
Its CC50 is 32.7 µM.

`Nc1sc2ccccc2[n+]1Cc1ccc(C(=O)O)cc1` was tested. Which CC50 did it give?
The CC50 was > 100 µM (inactive).

How did the CC50 turn out when `CS(=O)(=O)C1=NSC2=NC(=O)/C(=C\c3cccn3-c3cc(Cl)cc(Cl)c3)C(=N)N21` was run?
Its CC50 is 51.9 µM.

How did the CC50 turn out when `CCOC(=O)C1=C(C)N=c2sc(=Cc3ccc(OCC(=O)O)cc3)c(=O)n2C1c1ccc(F)cc1` (centres undefined) was run?
The CC50 was 63 µM.

With `CCOC(=O)C1=C(C)N=c2s/c(=C\c3ccc(OCC(=O)O)cc3)c(=O)n2C1c1ccc(OC)c(OCC)c1` (centres undefined) as the compound, how does the CC50 read?
Its CC50 is 71.9 µM.

How did the CC50 turn out when `CCc1ccc(-c2ccc(/C=C3\SC(=S)N(CCCC(=O)O)C3=O)o2)cc1` was run?
Its CC50 is > 100 µM (inactive).

Which CC50 does the source give for `O=C(O)c1ccc(C[n+]2c(-c3ccccc3)csc2Nc2ccccc2)cc1` here?
Its CC50 is 75.2 µM.

How did the CC50 turn out when `Cc1ccc(-n2cccc2/C=C2/C(=N)N3C(=NC2=O)SN=C3S(C)(=O)=O)cc1` was run?
The CC50 was 39.5 µM.

For `COc1cccc(-n2cccc2/C=C2/C(=N)N3C(=NC2=O)SN=C3S(C)(=O)=O)c1`, which CC50 is on record?
Its CC50 is > 100 µM (inactive).

How did the CC50 turn out when `CCOC(=O)C1=C(C)N=c2s/c(=C\c3ccc(OCC(=O)O)cc3)c(=O)n2C1c1ccc(Cl)cc1` (centres undefined) was run?
Its CC50 is 38.3 µM.

Which CC50 does the source give for `Cc1c2c(=O)n(-c3nc4ccccc4s3)nc-2cc(O)n1C1CC1` here?
Its CC50 is 6 µM.

`CS(=O)(=O)C1=NSC2=NC(=O)/C(=C\c3cccn3-c3ccc(Cl)c(Cl)c3)C(=N)N21` was tested. Which CC50 did it give?
Its CC50 is 39.4 µM.

How did the CC50 turn out when `CC1=C(C(=O)OC(C)C)C(c2ccc(Cl)cc2)n2c(s/c(=C\c3ccc(OCC(=O)O)cc3)c2=O)=N1` (centres undefined) was run?
The CC50 was > 100 µM (inactive).

How did the CC50 turn out when `Cc1c2c(=O)n(-c3nc4ccccc4s3)nc-2cc(O)n1Cc1ccccc1Cl` was run?
Its CC50 is 23.5 µM.

With `O=C(O)CCCN1C(=O)/C(=C/c2ccc(-c3ccc(Cl)c(Cl)c3)o2)SC1=S` as the compound, how does the CC50 read?
Its CC50 is 18.3 µM.

Which CC50 does the source give for `Cc1c2c(=O)n(-c3nc4ccccc4s3)nc-2cc(O)n1Cc1cccnc1` here?
Its CC50 is 7.3 µM.

`CS(=O)(=O)C1=NSC2=NC(=O)/C(=C\c3cccn3-c3cccc(Cl)c3)C(=N)N21` was tested. Which CC50 did it give?
Its CC50 is 36.5 µM.

For `O=C(O)c1ccc(C2Nc3ccc(S(=O)(=O)Nc4cc(Cl)ccc4Cl)cc3C3C=CCC32)cc1` (centres undefined), which CC50 is on record?
Its CC50 is 85.6 µM.

Which CC50 does the source give for `CCOC(=O)C1=C(C)N=c2sc(=Cc3ccc(OCC(=O)O)cc3)c(=O)n2C1c1ccccc1` (centres undefined) here?
The CC50 was 62.2 µM.

How did the CC50 turn out when `O=C(O)CCCN1C(=O)/C(=C/c2ccc(-c3cccc(C(F)(F)F)c3)o2)SC1=S` was run?
The CC50 was 92.8 µM.

`O=C(O)c1ccc([C@@H]2Nc3ccc(S(=O)(=O)Nc4cccc5ccccc45)cc3[C@@H]3C=CC[C@@H]32)cc1` was tested. Which CC50 did it give?
The CC50 was 68.9 µM.

For `COc1ccccc1NS(=O)(=O)c1ccc2c(c1)C1C=CCC1C(c1ccc(C(=O)O)cc1)N2` (centres undefined), which CC50 is on record?
Its CC50 is 70.9 µM.
